Measured values as given in patent US11999727B2 (Tango Therapeutics, Inc., priority 2020, dated 2024).
Where two headings read alike, the source gives them in different places.

Key:
[1] = test system: HAP1 MTAP-deleted cell line; assay: Viability assay, MTAP-deleted cell line; assay type: cell-based; details: Homo sapiens, read-out: HAP1 MTAP deleted viability
Excerpt: Table 1 additionally indicates IC50 values in a viability assay for the MTAP-deleted cell line (column 10), indicating the effect of treatment with compound on cell survival.

[2] = target: T1, PRMT5 (Homo sapiens, UniProt O14744); assay: PRMT5 biochemical IC50 assay with SAM as cofactor; details: PRMT5, SAM as cofactor; read-out: SAM IC50
T1 construct: purchased Viva (custom protein)

[3] = target: T1, PRMT5; assay: PRMT5 biochemical IC50 assay with MTA as cofactor; details: PRMT5, MTA as cofactor; read-out: MTA IC50
[4] = target: T1, PRMT5; assay: PRMT5 biochemical IC50 assay with no cofactor; details: PRMT5, no cofactor; read-out: No Cofactor/rel IC50
Excerpt: Table 1 indicates IC50 values (μM) against PRMT5 for exemplary compounds in the presence of SAM as cofactor, with no cofactor, and with MTA as cofactor, respectively (columns 4-6). […] Ki values can be calculated from the IC50 values as described in the Examples section. As detailed in the Examples section, for the assay performed in the presence of SAM, IC50=Ki×1.5 (Ki=IC50/1.5).

[5] = HAP1, viability assay, MTAP-deleted cell line
[6] = HAP1, viability IC50, MTAP-deleted cell line

T1 sequence (O14744 whole entry): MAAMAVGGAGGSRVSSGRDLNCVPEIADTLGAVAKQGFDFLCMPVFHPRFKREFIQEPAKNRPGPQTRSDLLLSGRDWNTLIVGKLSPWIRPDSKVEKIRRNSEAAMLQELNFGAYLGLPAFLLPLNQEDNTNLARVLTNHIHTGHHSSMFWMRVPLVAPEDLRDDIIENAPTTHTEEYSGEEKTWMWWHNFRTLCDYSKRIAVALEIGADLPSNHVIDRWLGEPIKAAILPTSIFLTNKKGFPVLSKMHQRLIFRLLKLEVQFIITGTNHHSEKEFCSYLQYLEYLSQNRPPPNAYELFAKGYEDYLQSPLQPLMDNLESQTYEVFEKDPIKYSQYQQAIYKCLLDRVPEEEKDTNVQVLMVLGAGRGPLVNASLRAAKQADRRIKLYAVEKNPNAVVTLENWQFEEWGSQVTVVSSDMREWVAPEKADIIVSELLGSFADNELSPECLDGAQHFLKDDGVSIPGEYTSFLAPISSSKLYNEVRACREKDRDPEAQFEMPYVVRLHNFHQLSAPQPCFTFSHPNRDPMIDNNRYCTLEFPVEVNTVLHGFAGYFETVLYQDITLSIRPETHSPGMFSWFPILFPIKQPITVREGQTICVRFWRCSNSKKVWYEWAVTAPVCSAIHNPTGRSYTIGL
T1 sequence (Q9BQA1 whole entry partner): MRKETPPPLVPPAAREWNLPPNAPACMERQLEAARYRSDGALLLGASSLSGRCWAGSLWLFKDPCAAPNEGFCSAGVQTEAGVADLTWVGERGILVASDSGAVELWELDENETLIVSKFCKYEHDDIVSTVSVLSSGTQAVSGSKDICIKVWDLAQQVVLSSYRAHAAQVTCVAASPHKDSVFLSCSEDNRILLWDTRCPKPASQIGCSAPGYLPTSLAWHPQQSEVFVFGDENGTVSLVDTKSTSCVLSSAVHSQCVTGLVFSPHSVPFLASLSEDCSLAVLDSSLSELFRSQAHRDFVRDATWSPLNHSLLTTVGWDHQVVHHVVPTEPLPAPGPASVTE

Row | SMILES | IC50 [2] | IC50 [3] | IC50 [4] | IC50 [1, 5] | IC50 [1, 6]
1 | NC(=O)c1cncc(NC(=O)C(=O)N2CC[C@H]3C[C@@H](O)CC[C@@H]3C2)c1 (racemic) [Compound 418, 5-[2-(6-Hydroxy-decahydroisoquinolin-2-yl)-2-oxoacetamido]pyridine-3-carboxamide] | > 500 nM | 50 to 500 nM | > 500 nM | > 10000 nM | 
2 | Cc1cc(NC(=O)C(=O)N2C[C@@H](C)CC[C@@H]2c2cc(F)cc(Cl)c2)cnc1N (single isomer, unassigned) [Compound 682] | > 500 nM | 50 to 500 nM | > 500 nM |  | > 10000 nM
3 | Cc1cc(NC(=O)C(=O)N2C[C@@H](C)CC[C@@H]2c2cccc3c2CCN3)cnc1N (single isomer, unassigned) [Compound 957] | > 500 nM | > 500 nM | > 500 nM | > 10000 nM | 
4 | Cc1cc(NC(=O)C(=O)N2C[C@H](C)CC[C@H]2c2ccc3sc(N)nc3c2)cnc1N (single isomer, unassigned) [Compound 981] | > 500 nM | > 500 nM | > 500 nM | > 10000 nM | 
5 | CCc1cc(NC(=O)C(=O)N2C[C@H](C)CC[C@H]2c2ccc3c(c2)CNC3=O)cnc1N (single isomer, unassigned) [Compound 699, N-(6-amino-5-ethylpyridin-3-yl)-2-(5-methyl-2-(1-oxoisoindolin-5-yl)piperidin-1-yl)-2-oxoacetamide] | > 500 nM | > 500 nM | > 500 nM |  | > 10000 nM
6 | COc1ncc(NC(=O)C(=O)N2C[C@@H](C)CC[C@@H]2c2ccc(NS(C)(=O)=O)nc2)cc1C(N)=O (single isomer, unassigned) [Compound 999] | > 500 nM | > 500 nM | > 500 nM | > 10000 nM | 
7 | C[C@@H]1CC[C@@H](c2ccccc2)N(C(=O)C(=O)Nc2cncc(C(N)=O)c2)[C@@H]1C (single isomer, unassigned) [Compound 435] | > 500 nM | > 500 nM | > 500 nM | > 10000 nM | 
8 | COc1ncc(NC(=O)C(=O)N2C[C@@H](C)CC[C@@H]2c2ccc(F)cc2)cc1C(N)=O (single isomer, unassigned) [Compound 445] | > 500 nM | > 500 nM | > 500 nM | > 10000 nM | 
9 | C[C@H]1CC[C@H](c2ccc(NCC(F)(F)F)cc2)N(C(=O)C(=O)Nc2cncc(C(N)=O)c2)C1 (single isomer, unassigned) [Compound 456] | > 500 nM | > 500 nM | > 500 nM | > 10000 nM | 
10 | CC(=O)Nc1ccc([C@H]2CC[C@H](C)CN2C(=O)C(=O)Nc2cncc(C(N)=O)c2)cc1 (single isomer, unassigned) [Compound 452] | > 500 nM | > 500 nM | > 500 nM | > 10000 nM | 
11 | CCc1cc(NC(=O)C(=O)N2C[C@H](C)CC[C@H]2c2ccc3c(c2)C(=O)NC3)cnc1N (single isomer, unassigned) [Compound 695] | > 500 nM | > 500 nM | > 500 nM |  | > 10000 nM
12 | Cc1cc(NC(=O)C(=O)N2C[C@@H](C)CC[C@@H]2[C@H]2CC[C@@H](O)CC2)cnc1N (single isomer, unassigned) [Compound 423] | > 500 nM | > 500 nM | > 500 nM | > 10000 nM | 
13 | CCc1cc(NC(=O)C(=O)N2C[C@H](C)CC[C@H]2c2ccc3sc(N)nc3c2)cnc1N (single isomer, unassigned) [Compound 984] | > 500 nM | > 500 nM | > 500 nM | > 10000 nM | 
14 | C[C@H]1CC[C@H](c2cc3cn[nH]c3s2)N(C(=O)C(=O)Nc2cncc(C(N)=O)c2)C1 (single isomer, unassigned) [Compound 971, 5-(2-(5-methyl-2-(1H-thieno[2,3-c]pyrazol-5-yl)piperidin-1-yl)-2-oxoacetamido)nicotinamide] | > 500 nM | > 500 nM | > 500 nM | > 10000 nM | 

Second part, led by results:

Row | IC50 [2] | IC50 [3] | IC50 [4] | SMILES | IC50 [1, 5] | IC50 [1, 6]
15 | > 500 nM | > 500 nM | > 500 nM | CCc1cc(NC(=O)C(=O)N2C[C@H](C)CC[C@H]2c2ccc3sc(C(F)(F)F)nc3c2)cnc1N (single isomer, unassigned) [Compound 1027] | > 10000 nM | 
16 | > 500 nM | > 500 nM | > 500 nM | Cc1cc(NC(=O)C(=O)N2C[C@H](C)CC[C@H]2c2ccc3c(c2)CCNC3=O)cnc1N (single isomer, unassigned) [Compound 994] | > 10000 nM | 
17 | > 500 nM | > 500 nM | > 500 nM | Cc1cc(NC(=O)C(=O)N2C[C@H](C)CC[C@H]2c2ccc(S(C)(=O)=O)cc2)cnc1N (single isomer, unassigned) [Compound 938] | > 10000 nM | 
18 | 50 to 500 nM | < 50 nM | < 50 nM | CCc1cc(NC(=O)C(=O)N2C[C@@H](C)CC[C@@H]2c2ccc3sc(N)nc3c2)cnc1N (single isomer, unassigned) [Compound 996] | < 1000 nM | 
19 | > 500 nM | > 500 nM | > 500 nM | Cc1ncc(NC(=O)C(=O)N2C[C@@H](C)CC[C@@H]2c2ccc3c(c2)CCC(=O)N3)cc1C(F)(F)F (single isomer, unassigned) [Compound 698] |  | > 10000 nM
20 | > 500 nM | 50 to 500 nM | > 500 nM | C[C@@H]1CC[C@@H](c2cccc(Cl)c2)N(C(=O)C(=O)Nc2cnc(N)c(C3CC3)c2)C1 (single isomer, unassigned) [Compound 1169] | > 10000 nM | 
21 | > 500 nM | > 500 nM | > 500 nM | COc1ncc(NC(=O)C(=O)N2C[C@H](C)CC[C@H]2c2ccc3sc(CCN(C)C)nc3c2)cc1C(N)=O (single isomer, unassigned) [Compound 1197] | 1000 to 10000 nM | 
22 | > 500 nM | > 500 nM | > 500 nM | Cc1cc(NC(=O)C(=O)N2C[C@@H](C)CC[C@@H]2c2cccc3[nH]ccc23)cnc1N (single isomer, unassigned) [Compound 1038] | > 10000 nM | 
23 | > 500 nM | > 500 nM | > 500 nM | CCc1cc(NC(=O)C(=O)N2C[C@@H](C)CC[C@@H]2c2ccc(NS(C)(=O)=O)nc2)cnc1N (single isomer, unassigned) [Compound 983] | > 10000 nM | 
24 | > 500 nM | > 500 nM | > 500 nM | Cc1cc(NC(=O)C(=O)N2C[C@@H](C)CC[C@@H]2c2ccc3[nH]nc(N)c3c2)cnc1C (single isomer, unassigned) [Compound 958] | > 10000 nM | 
25 | 50 to 500 nM | < 50 nM | < 50 nM | CCc1cc(NC(=O)C(=O)N2C[C@@H](C)CC[C@@H]2c2ccc3sc(C(F)(F)F)nc3c2)cnc1N (single isomer, unassigned) [Compound 1022] | < 1000 nM | 
26 | 50 to 500 nM | < 50 nM | < 50 nM | Cc1cc(NC(=O)C(=O)N2C[C@H](C)C(F)(F)C[C@H]2c2cccc3[nH]ncc23)cnc1N (single isomer, unassigned) [Compound 1041] | < 1000 nM | 
27 | 50 to 500 nM | 50 to 500 nM | > 500 nM | COc1ncc(NC(=O)C(=O)N2C[C@H](C)CC[C@@H]2C2CCCC2)cc1C(N)=O (single isomer, unassigned) [Compound 312] | > 10000 nM | 
